# Experiments:
# Format in all cases: physicochemical
# [1] = Deamidation of Asn pentapeptides GlyXxxAsnYyyGly (medians over Xxx)
# Excerpt: (§1) Median values for carboxyl side residues of Asn and Gln were used in these derivations. The measurements for Asn are the most reliable and are used for these derivations. […] The half-time of hydrolysis was assumed to be 8010 days, but may be faster or slower. Regardless of the derivation based on Asn, calculations of Gln based on these values are found to approximately agree with the currently available data.
# (§2) The natural log of the median hydrolysis-corrected rate constants times 100 (s^−1) for the Asn and Gln pentapeptides as a function of carboxyl-side residue as computed from the experimental data are listed in Table 1. The first columns are (100)(ln(k)) and are directly proportional to the Arrhenius activation energy. The second columns are normalized to Gly. This leaves only the side-chain effects and also defines the effect of the Gly hydrogen side-chain or a similar atom with mostly steric effects in this β-position as zero.
# For most Asn peptides the computed result should be within 10% or less of the experimental value in 37° C., pH 7.4, 0.15 M Tris-HCl buffer or similar conditions. Gln rates are more affected by hydrolysis and cannot be verified to as high an accuracy with the current data. For Gln peptides and long lived Asn peptides, correction for hydrolysis should be made. With a hydrolysis value of 8010 days: t1/2total=1/(1/8010+1/t1/2calculated)
# [2] = Deamidation of Gln pentapeptides GlyXxxGlnYyyGly (medians over Xxx); conditions: Gln versus Asn peptide
# Excerpt: as §1, §2
# This model for Asn deamidation is also applicable to Gln deamidation, although Gln deamidation rates have not been as well characterized. While there may be important differences in the functional group effects for the longer Gln chain, the steric effects are similar as illustrated in FIG. 6. […] The fundamental difference between Asn and Gln rates has been removed by subtracting the Gln values from GlyXxxGlnGlyGly and the Asn values from GlyXxxAsnGlyGly.
# [3] = Deamidation of insulin at Asn(B3)
# Description: As an example, consider the sequence Phe-ValAsn(B3)GlnHis of insulin. This peptide deamidates at Asn(B3) with a half-time of 136 days at 37° C., pH 7.4 sodium acetate, 0.1% methyl paraben, 0.7% NaCl.
substance,measurement,setting,value
GlyXxxAsnGlyGly,deamidation rate (50% chance of deamidating),[1],about 1 day
GlyXxxGlnGlyGly,"difference between GlyXxxGlnGlyGly and GlyXxxAsnGlyGly, (100)ln(k) scale",[2],644.8
GlyXxxAsnThrGly,experimental deamidation half-time,"[1]; 37° C., pH 7.4, 0.15 M Tris-HCl buffer",46.2 days
insulin,deamidation half-time at Asn(B3),"[3]; 37° C., pH 7.4 sodium acetate, 0.1% methyl paraben, 0.7% NaCl",136 days
same,(100)ln(k) subtracted from the AsnGly value,[3]; converted from the 136 day half-time,478.3
